Values joined by “and” are separate entries in the source; they are usually repeats but may differ in a detail not shown here. Identical values can stand only once. “Also recorded” adds a separate entry of the source.
Assays:
[1] = tested on: extrinsic and intrinsic blood coagulation factors; test: Example 2: activities of extrinsic and intrinsic blood coagulation factors in rat plasma (factor deficient plasma method); format: in vivo; settings: 300 mg/kg/day oral, mean, % of intact rat plasma
male Sprague-Dawley rats [2] = test: Example 2: PT, APTT and Fbg in rat plasma after 1, 2 and 3 administrations; format: in vivo; settings: 300 mg/kg/day oral, blood on next day, mean
male Sprague-Dawley rats [3] = test: Example 1: PT, APTT and Fbg in rat plasma after 7-day repeated gavage administration; format: in vivo; settings: 300 mg/kg/day gavage, 7 days; for PT and APTT compared with Controls / APTT / Fbg / PT: rat
[4] = tested on: Vitamin K-dependent coagulation factors (F-II, F-VII, F-X, F-IX); test: Example 3: activities of vitamin K-dependent coagulation factors in rats given Compound (a) and/or vitamin K1; format: in vivo; settings: rat, 3 days; for F-II activity / F-IX activity / F-VII activity / F-X activity: mean
Description: (§1) 4-week-old male Sprague-Dawley rats (Crj:CD(SD)IGS, SPF) were purchased from CHARLES RIVER LABORATORIES JAPAN, INC., Hino Breeding Center. […] Administeration was started at. […] Subcutaneous administeration was a 3-day administeration (3 or 200 μg/kg/day) into the back skin with injection syringe attached with a subcutaneous 1⁄4 needle at 1 mL/kg/day. Oral administeration was a 3-day repeated gavage administeration (200 μg/kg/day) with gastric tube for rats at. 4 mL/kg/day. Dosing volume was calculated based on body weight measured on that day. […] Activities of Vitamin K-dependent coagulation factors ([…]) were also) measured with the same blood plasma samples according to Example 2.

male Sprague-Dawley rats [5] = test: Example 4: PT, APTT and Fbg in rats given Compound (a) with or without vitamin K1 for 7 days; format: in vivo; settings: rat; for APTT / Fbg / PT: Compound (a) only 200 mg/kg oral
Description: 4-week-old male Sprague-Dawley rats (Crl:CD(SD), SPF) were purchased from CHARLES RIVER LABORATORIES JAPAN, INC., Hino Breeding Center. […] 0.005% (v/v) solution of vitamin K1 (TOYO Pharma Co., Ltd., 30 mg/3 mL) was prepared just before use with a vehicle of water for injection (Otsuka Pharmaceutical Factory, Inc.). […] Dosing volume was calculated based on body weight, measured on that day. […] The rats were dissected after collecting the blood and a visual inspection of skeletal muscle (soleus muscle) was carried out. After that, the muscle was fixed with 10% neutral buffered formalin, paraffin section was routinely processed, and a histological examination was carried out with an optical microscope after hematoxylin and eosin staining.

[6] = disclosed in WO01/00603; cited from earlier work
male Sprague-Dawley rats [7] = test: Example 3: PT, APTT and Fbg in rats given Compound (a) and/or vitamin K1 for 3 days; format: in vivo; settings: rat; for APTT / Fbg / PT: mean
Description: as §1

[8] = tested on: skeletal muscle (soleus muscle); test: Example 4: histological examination of skeletal muscle (soleus muscle); format: in vivo; set-up: key: (±): slight; (+): mild; settings: rat, Compound (a) only 200 mg/kg oral, 7 days; individual animal
human PPARδ (hPPARδ) = human PPARδ (hPPARδ) (Homo sapiens, UniProt Q03181); test: cell-based
Sequence of human PPARδ (hPPARδ) (Q03181 139-441 limits assumed): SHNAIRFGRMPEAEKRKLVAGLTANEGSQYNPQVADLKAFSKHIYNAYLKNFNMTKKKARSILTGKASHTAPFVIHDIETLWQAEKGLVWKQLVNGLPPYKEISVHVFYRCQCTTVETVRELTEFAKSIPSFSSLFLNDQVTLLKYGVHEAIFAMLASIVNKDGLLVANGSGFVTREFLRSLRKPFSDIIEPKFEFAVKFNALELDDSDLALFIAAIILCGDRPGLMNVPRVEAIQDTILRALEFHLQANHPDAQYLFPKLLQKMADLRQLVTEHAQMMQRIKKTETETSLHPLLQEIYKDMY

[9] = Compound (a) only 300 mg/kg oral
[10] = Compound (a) only 300 mg/kg/day
[11] = individual animal, 300 mg/kg/day
[12] = vitamin K1 only 200 μg/kg subcutaneous

For `Cc1cc(SCc2sc(-c3ccc(C(F)(F)F)cc3)nc2C)ccc1OCC(=O)O` [Compound (a), GW501516], the F-II activity ([1]; 1 dose) was 60.8%, the F-IX activity ([1]; 1 dose) was 62.5% and the F-V activity ([1]; 1 dose) was 93.3%. For the same compound, the F-VII activity ([1]; 1 dose) was 57.7%, the F-VIII activity ([1]; 1 dose) was 99.2% and the F-X activity ([1]; 1 dose) was 68.3%. It also gave a F-XI activity ([1]; 1 dose) of 84.0%, a F-XII activity ([1]; 1 dose) of 79.4% and a F-II activity ([1]; 2 doses) of 24.2%. It also gave a F-IX activity ([1]; 2 doses) of 34.2%, a F-V activity ([1]; 2 doses) of 90.6% and a F-VII activity ([1]; 2 doses) of 17.1%. For the same compound, the F-VIII activity ([1]; 2 doses) was 94.2%, the F-X activity ([1]; 2 doses) was 44.7% and the F-XI activity ([1]; 2 doses) was 76.0%. For the same compound, the F-XII activity ([1]; 2 doses) was 80.7%, the F-II activity ([1]; 3 doses) was 15.1% and the F-IX activity ([1]; 3 doses) was 24.6%. It also gave a F-V activity ([1]; 3 doses) of 93.0%, a F-VII activity ([1]; 3 doses) of 8.8% and a F-VIII activity ([1]; 3 doses) of 101.2%. The F-X activity ([1]; 3 doses) was 32.4%, the F-XI activity ([1]; 3 doses) was 71.0% and the F-XII activity ([1]; 3 doses) was 78.6%. It also gave an APTT (male Sprague-Dawley rats [2]; 1 dose) of 19.9 s, a Fbg (male Sprague-Dawley rats [2]; 1 dose) of 200.1 mg/dL and a PT (male Sprague-Dawley rats [2]; 1 dose) of 14.6 s. The APTT (male Sprague-Dawley rats [2]; 2 doses) was 25.5 s, the Fbg (male Sprague-Dawley rats [2]; 2 doses) was 198.8 mg/dL and the PT (male Sprague-Dawley rats [2]; 2 doses) was 18.3 s. The APTT (male Sprague-Dawley rats [2]; 3 doses) was 30.7 s, the Fbg (male Sprague-Dawley rats [2]; 3 doses) was 175.7 mg/dL and the PT (male Sprague-Dawley rats [2]; 3 doses) was 21.7 s. For the same compound, the rats died (male Sprague-Dawley rats [3]; 4 animals in the group) was 3, the “PT and APTT compared with Controls” value (male Sprague-Dawley rats [3]) was “prolonged” and the APTT (male Sprague-Dawley rats [3]; blood on next day, group mean) was 46.4 s. For the same compound, the Fbg (male Sprague-Dawley rats [3]; blood on next day, group mean) was 173.3 mg/dL, the PT (male Sprague-Dawley rats [3]; blood on next day, group mean) was 26.9 s and the APTT (male Sprague-Dawley rats [3]; individual animal) was 46.4 s. The Fbg (male Sprague-Dawley rats [3]; individual animal) was 173.3 mg/dL, the PT (male Sprague-Dawley rats [3]; individual animal) was 26.9 s and the F-II activity [4, 9] was 13.8%. The F-IX activity [4, 9] was 27.7%, the F-VII activity [4, 9] was 6.3% and the F-X activity [4, 9] was 29.9%. For the same compound, the “activities of vitamin K-dependent coagulation factors compared with the intact group” value [4, 10] was “lowered”, the APTT (male Sprague-Dawley rats [5]; individual animal) was 34.1 s and 67.1 s and the Fbg (male Sprague-Dawley rats [5]; individual animal) was 199.7 mg/dL and 227.2 mg/dL. For the same compound, the PT (male Sprague-Dawley rats [5]; individual animal) was 19.1 s and 35.5 s, the APTT (male Sprague-Dawley rats [5]; mean) was 50.6 s and the Fbg (male Sprague-Dawley rats [5]; mean) was 213.5 mg/dL. The PT (male Sprague-Dawley rats [5]; mean) was 27.3 s, the “prothrombin time and activated partial thromboplastin time” value (male Sprague-Dawley rats [5]; Compound (a) only 200 mg/kg/day) was “prolonged” and the “elevation of HDL” value [6] was “high elevation of HDL; also recorded: HDL-raising”. For the same compound, the APTT (male Sprague-Dawley rats [7]; [9]) was 30.2 s, the Fbg (male Sprague-Dawley rats [7]; [9]) was 177.8 mg/dL and the PT (male Sprague-Dawley rats [7]; [9]) was 23.0 s. For the same compound, the “PT and APTT compared with the intact group” value (male Sprague-Dawley rats [7]; [10]) was “more prolonged” and the “Histological examination Soleus muscle: Necrosis” value [8] was “Necrosis (+); also recorded: Necrosis (±)”.

With `CCO/N=C/c1c(CSc2ccc(C(C)CC(=O)O)cc2OC)noc1-c1ccc(C(F)(F)F)cc1` (centres unmarked) [Compound (b)] the “PT and APTT compared with Controls” value (male Sprague-Dawley rats [3]) was “prolonged”, the APTT (male Sprague-Dawley rats [3]; blood on next day, group mean) was 31.3 s and the Fbg (male Sprague-Dawley rats [3]; blood on next day, group mean) was 204.5 mg/dL. For the same compound, the PT (male Sprague-Dawley rats [3]; blood on next day, group mean) was 18.6 s, the APTT (male Sprague-Dawley rats [3]; [11]) was 29.1 s and 28.2 s and 30.7 s and 37.3 s and the Fbg (male Sprague-Dawley rats [3]; [11]) was 217.9 mg/dL (2×) and 208.9 mg/dL and 173.3 mg/dL. The PT (male Sprague-Dawley rats [3]; [11]) was 17.4 s and 18.6 s and 16.4 s and 22.0 s and the EC50 (human PPARδ (hPPARδ)) was 1.3 nM.

With `Cc1c(CSc2ccc([C@@H](C)CC(=O)O)cc2)noc1-c1ccc(C(F)(F)F)cc1` [Compound (c)] the “PT and APTT compared with Controls” value (male Sprague-Dawley rats [3]) was “prolonged”, the APTT (male Sprague-Dawley rats [3]; blood on next day, group mean) was 43.9 s and the Fbg (male Sprague-Dawley rats [3]; blood on next day, group mean) was 204.8 mg/dL. The PT (male Sprague-Dawley rats [3]; blood on next day, group mean) was 24.5 s, the APTT (male Sprague-Dawley rats [3]; [11]) was 21.9 s and 41.8 s and 68.2 s and 43.8 s and the Fbg (male Sprague-Dawley rats [3]; [11]) was 201.8 mg/dL and 179.6 mg/dL and 193.8 mg/dL and 243.9 mg/dL. The PT (male Sprague-Dawley rats [3]; [11]) was 13.6 s and 22.3 s and 35.9 s and 26.0 s and the EC50 (human PPARδ (hPPARδ)) was 18.9 nM.

With `CC1=C(C/C=C(\C)CCC[C@H](C)CCC[C@H](C)CCCC(C)C)C(=O)c2ccccc2C1=O` [Vitamin K1, phylloquinone] the F-II activity [4, 12] was 92.7%, the F-IX activity [4, 12] was 100.2% and the F-VII activity [4, 12] was 70.1%. The F-X activity [4, 12] was 74.3%, the APTT (male Sprague-Dawley rats [7]; [12]) was 15.9 s and the Fbg (male Sprague-Dawley rats [7]; [12]) was 200.3 mg/dL. For the same compound, the PT (male Sprague-Dawley rats [7]; [12]) was 15.3 s and the “each item (PT, APTT, Fbg, factor activities) compared with the intact group” value (male Sprague-Dawley rats [7]; vitamin K1 only 200 μg/kg/day subcutaneous) was “no significant differences”.

Reference: patent US20110028499A1, “PHARMACEUTICAL COMBINATION COMPRISING VITAMIN K” (SHIONOGI & CO., LTD., priority 2005, published 2011)
